Source: ChEMBL document CHEMBL2346515, “Discovery of 4-alkylamino-7-aryl-3-cyanoquinoline LRRK2 kinase inhibitors” (Bioorg Med Chem Lett, 2013)
Blank lines part the entries; values can stand above or below the compound they belong to.

Key:
[1] = molecular target: Tyrosine-protein kinase Lck (Homo sapiens) (UniProt P06239); assay: Inhibition of LCK (unknown origin) at 10 uM by single point assay
[2] = molecular target: Mitogen-activated protein kinase 1 (Homo sapiens) (UniProt P28482); assay: Inhibition of MAPK1 (unknown origin) at 10 uM by single point assay
[3] = molecular target: Rho-associated protein kinase 2 (Homo sapiens) (UniProt O75116); assay: Inhibition of ROCK2 (unknown origin) at 10 uM by single point assay
[4] = molecular target: Serine/threonine-protein kinase PLK2 (Homo sapiens) (UniProt Q9NYY3); assay: Inhibition of PLK2 (unknown origin) at 10 uM by single point assay
[5] = molecular target: Glycogen synthase kinase-3 beta (Homo sapiens) (UniProt P49841); assay: Inhibition of GSK3beta (unknown origin) at 10 uM by single point assay
[6] = molecular target: Macrophage colony-stimulating factor 1 receptor (Homo sapiens) (UniProt P07333); assay: Inhibition of CSF1R (unknown origin) at 10 uM by single point assay
[7] = molecular target: Tyrosine-protein kinase ABL1 (Homo sapiens) (UniProt P00519); assay: Inhibition of ABL1 (unknown origin) at 10 uM by single point assay
[8] = molecular target: Proto-oncogene tyrosine-protein kinase receptor Ret (Homo sapiens) (UniProt P07949); assay: Inhibition of RET (unknown origin) at 10 uM by single point assay
[9] = molecular target: Dual specificity protein kinase CLK1 (Homo sapiens) (UniProt P49759); assay: Inhibition of CLK1 (unknown origin) at 10 uM by single point assay
[10] = molecular target: cAMP-dependent protein kinase catalytic subunit alpha (Homo sapiens) (UniProt P17612); assay: Inhibition of PRKACA (unknown origin) at 10 uM by single point assay
[11] = molecular target: Cyclin-dependent kinase 5/CDK5 activator 1 (Homo sapiens) (UniProt Q00535+Q15078); assay: Inhibition of CDK5/p25 (unknown origin) at 10 uM by single point assay; type: protein-complex assay
[12] = molecular target: Receptor tyrosine-protein kinase erbB-4 (Homo sapiens) (UniProt Q15303); assay: Inhibition of ErbB4 (unknown origin) at 10 uM by single point assay
[13] = molecular target: Tyrosine-protein kinase SYK (Homo sapiens) (UniProt P43405); assay: Inhibition of SYK (unknown origin) at 10 uM by single point assay
[14] = molecular target: Calcium/calmodulin-dependent protein kinase type II subunit alpha (Homo sapiens) (UniProt Q9UQM7); assay: Inhibition of CAMK2alpha (unknown origin) at 10 uM by single point assay
[15] = molecular target: T1, Serine/threonine-protein kinase 3 (Homo sapiens) (UniProt Q13188); assay: Inhibition of STK3 (unknown origin) at 10 uM by single point assay
T1 sequence (whole entry): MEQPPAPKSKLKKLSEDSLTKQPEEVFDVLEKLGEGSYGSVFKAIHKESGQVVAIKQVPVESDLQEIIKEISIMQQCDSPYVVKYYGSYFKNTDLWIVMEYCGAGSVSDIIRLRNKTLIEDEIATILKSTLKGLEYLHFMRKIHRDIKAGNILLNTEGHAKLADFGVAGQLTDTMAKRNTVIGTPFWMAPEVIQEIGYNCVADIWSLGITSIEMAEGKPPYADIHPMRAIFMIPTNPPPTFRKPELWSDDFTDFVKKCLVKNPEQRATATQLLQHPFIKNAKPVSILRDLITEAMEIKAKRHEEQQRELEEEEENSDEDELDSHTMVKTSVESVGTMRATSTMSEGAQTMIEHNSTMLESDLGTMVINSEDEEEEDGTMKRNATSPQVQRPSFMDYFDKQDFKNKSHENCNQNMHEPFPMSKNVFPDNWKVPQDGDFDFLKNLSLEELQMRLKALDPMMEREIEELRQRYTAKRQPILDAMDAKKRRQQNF

[16] = molecular target: Protein-tyrosine kinase 2-beta (Homo sapiens) (UniProt Q14289); assay: Inhibition of PTK2B (unknown origin) at 10 uM by single point assay
[17] = molecular target: Serine/threonine-protein kinase PLK3 (Homo sapiens) (UniProt Q9H4B4); assay: Inhibition of PLK3 (unknown origin) at 10 uM by single point assay
[18] = molecular target: Tyrosine-protein kinase JAK1 (Homo sapiens) (UniProt P23458); assay: Inhibition of JAK1 (unknown origin) at 10 uM by single point assay
[19] = molecular target: T2, Dual specificity protein kinase TTK (Homo sapiens) (UniProt P33981); assay: Inhibition of TTK (unknown origin) at 10 uM by single point assay
T2 sequence (whole entry): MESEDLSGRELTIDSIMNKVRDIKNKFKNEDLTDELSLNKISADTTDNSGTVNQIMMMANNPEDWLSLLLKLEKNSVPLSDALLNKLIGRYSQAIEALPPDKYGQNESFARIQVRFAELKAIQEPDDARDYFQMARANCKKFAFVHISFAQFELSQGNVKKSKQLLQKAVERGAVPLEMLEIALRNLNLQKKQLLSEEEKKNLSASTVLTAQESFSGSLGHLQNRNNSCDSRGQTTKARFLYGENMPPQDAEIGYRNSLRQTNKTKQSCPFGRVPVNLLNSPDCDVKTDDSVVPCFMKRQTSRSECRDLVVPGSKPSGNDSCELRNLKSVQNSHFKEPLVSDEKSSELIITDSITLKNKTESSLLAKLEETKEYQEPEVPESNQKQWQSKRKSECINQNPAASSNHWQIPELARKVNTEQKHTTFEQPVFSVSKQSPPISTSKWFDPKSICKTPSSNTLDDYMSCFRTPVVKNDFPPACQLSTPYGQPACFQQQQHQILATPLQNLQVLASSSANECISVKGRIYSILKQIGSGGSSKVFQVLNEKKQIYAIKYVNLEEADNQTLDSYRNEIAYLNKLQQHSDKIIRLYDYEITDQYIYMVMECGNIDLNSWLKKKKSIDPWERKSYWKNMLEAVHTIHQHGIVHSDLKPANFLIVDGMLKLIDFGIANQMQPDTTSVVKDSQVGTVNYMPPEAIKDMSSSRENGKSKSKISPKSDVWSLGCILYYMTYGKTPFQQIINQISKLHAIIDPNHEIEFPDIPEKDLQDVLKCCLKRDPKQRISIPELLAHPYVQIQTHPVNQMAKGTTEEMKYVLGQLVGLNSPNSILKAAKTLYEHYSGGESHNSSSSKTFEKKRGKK

[20] = molecular target: Mitogen-activated protein kinase 10 (Homo sapiens) (UniProt P53779); assay: Inhibition of MAPK10 (unknown origin) at 1 uM by single point assay
Plasma [21] = assay: Plasma concentration in mouse expressing mouse LRRK2 G2019S mutant at 30 mg/kg, po; type: ADME, organism-based; parameters: dose 30 mg/kg, route oral; conditions: in vivo
[22] = Ratio of drug uptake in brain to plasma of mouse expressing mouse LRRK2 G2019S mutant at 100 mg/kg, po; type: ADME, organism-based; parameters: dose 100 mg/kg, route oral; conditions: read-out: BPR
Plasma [23] = assay: Plasma concentration in mouse expressing mouse LRRK2 G2019S mutant at 100 mg/kg, po; type: ADME, organism-based; parameters: dose 100 mg/kg, route oral; conditions: in vivo
Brain = assay: Drug uptake in brain of mouse expressing mouse LRRK2 G2019S mutant at 30 mg/kg, po; type: ADME, organism-based; parameters: dose 30 mg/kg, route oral; conditions: in vivo

Glycogen synthase kinase-3 beta (Homo sapiens), sequence (P49841 whole entry, looked up): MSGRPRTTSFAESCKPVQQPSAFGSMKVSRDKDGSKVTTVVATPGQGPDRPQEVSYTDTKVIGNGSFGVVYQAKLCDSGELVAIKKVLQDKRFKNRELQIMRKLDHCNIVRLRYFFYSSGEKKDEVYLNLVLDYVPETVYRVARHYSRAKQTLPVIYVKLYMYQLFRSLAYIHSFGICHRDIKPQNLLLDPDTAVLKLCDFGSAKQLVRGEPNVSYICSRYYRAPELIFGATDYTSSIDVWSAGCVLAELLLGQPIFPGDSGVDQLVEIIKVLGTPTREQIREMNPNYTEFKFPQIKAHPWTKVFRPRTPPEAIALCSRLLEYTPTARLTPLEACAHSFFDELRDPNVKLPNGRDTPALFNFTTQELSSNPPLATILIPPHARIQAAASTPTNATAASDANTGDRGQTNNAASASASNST
Dual specificity protein kinase CLK1 (Homo sapiens), sequence (P49759 whole entry, looked up): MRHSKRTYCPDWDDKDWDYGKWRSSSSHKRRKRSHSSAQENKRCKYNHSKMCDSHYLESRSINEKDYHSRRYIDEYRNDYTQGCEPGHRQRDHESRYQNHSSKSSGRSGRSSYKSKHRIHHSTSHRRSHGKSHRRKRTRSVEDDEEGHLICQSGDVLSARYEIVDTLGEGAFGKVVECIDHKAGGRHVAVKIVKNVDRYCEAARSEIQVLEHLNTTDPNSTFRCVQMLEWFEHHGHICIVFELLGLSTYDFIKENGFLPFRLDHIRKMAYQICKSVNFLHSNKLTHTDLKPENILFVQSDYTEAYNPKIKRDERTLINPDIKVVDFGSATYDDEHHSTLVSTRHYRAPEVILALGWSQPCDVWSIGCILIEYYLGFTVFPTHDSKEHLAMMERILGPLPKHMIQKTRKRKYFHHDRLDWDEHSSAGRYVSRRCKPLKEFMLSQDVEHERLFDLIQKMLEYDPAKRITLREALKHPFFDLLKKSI
Tyrosine-protein kinase ABL1 (Homo sapiens), sequence (P00519 whole entry): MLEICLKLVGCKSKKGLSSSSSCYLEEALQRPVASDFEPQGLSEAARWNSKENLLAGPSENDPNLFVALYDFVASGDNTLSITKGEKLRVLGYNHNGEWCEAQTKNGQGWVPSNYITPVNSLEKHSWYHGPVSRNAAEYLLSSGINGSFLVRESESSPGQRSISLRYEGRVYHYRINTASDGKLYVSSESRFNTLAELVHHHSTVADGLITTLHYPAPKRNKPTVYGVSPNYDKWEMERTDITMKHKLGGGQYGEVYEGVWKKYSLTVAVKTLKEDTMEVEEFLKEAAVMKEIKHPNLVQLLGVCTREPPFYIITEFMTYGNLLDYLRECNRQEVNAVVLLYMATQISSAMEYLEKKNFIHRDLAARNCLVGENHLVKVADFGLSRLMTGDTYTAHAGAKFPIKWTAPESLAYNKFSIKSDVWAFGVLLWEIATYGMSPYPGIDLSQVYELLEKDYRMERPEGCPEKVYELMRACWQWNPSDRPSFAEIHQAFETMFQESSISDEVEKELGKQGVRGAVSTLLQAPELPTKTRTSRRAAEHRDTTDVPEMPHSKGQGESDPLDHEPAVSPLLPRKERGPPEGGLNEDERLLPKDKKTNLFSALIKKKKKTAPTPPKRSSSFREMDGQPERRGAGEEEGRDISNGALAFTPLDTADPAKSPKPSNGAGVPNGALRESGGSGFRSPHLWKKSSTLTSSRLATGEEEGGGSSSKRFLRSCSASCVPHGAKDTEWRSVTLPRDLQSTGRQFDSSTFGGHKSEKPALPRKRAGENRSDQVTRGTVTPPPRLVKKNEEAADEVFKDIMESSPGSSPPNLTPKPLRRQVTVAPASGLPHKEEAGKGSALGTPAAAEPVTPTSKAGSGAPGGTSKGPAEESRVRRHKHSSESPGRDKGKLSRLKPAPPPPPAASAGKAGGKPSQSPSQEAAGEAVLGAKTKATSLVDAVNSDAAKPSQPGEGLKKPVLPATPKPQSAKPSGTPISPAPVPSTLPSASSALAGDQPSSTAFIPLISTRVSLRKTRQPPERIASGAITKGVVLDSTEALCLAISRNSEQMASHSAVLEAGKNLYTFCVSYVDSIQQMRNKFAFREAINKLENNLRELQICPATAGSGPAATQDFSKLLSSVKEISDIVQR
Calcium/calmodulin-dependent protein kinase type II subunit alpha (Homo sapiens), sequence (Q9UQM7 whole entry): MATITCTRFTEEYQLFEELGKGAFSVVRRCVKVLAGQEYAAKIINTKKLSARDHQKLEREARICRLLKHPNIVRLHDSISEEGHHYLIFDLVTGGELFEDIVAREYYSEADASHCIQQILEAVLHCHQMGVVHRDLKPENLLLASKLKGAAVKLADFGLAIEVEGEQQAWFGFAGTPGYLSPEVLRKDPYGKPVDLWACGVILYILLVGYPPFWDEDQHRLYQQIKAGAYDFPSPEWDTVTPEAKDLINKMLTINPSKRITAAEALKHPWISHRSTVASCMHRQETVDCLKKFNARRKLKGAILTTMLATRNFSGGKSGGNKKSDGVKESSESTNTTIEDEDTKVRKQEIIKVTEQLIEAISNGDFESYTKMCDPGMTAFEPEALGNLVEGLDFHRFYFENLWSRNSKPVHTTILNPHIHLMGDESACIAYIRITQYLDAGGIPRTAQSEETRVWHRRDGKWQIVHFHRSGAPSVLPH
Cyclin-dependent kinase 5/CDK5 activator 1 (Homo sapiens), sequence (Q00535 whole entry): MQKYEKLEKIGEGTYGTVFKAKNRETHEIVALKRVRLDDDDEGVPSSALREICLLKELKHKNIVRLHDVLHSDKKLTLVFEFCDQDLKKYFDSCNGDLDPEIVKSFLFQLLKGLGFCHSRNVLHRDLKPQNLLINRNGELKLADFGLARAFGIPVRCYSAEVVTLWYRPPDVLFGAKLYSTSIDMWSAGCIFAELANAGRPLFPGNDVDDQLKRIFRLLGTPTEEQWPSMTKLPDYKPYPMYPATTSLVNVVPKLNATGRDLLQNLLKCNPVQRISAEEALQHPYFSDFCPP
Cyclin-dependent kinase 5/CDK5 activator 1 (Homo sapiens), sequence (Q15078 99-307 partner limits assumed): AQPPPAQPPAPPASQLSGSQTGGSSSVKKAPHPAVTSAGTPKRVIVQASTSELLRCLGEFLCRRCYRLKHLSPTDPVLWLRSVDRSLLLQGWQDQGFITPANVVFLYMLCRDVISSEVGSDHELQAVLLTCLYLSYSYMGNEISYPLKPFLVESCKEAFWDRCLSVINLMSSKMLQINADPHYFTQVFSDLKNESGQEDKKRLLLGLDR
Mitogen-activated protein kinase 1 (Homo sapiens), sequence (P28482 whole entry): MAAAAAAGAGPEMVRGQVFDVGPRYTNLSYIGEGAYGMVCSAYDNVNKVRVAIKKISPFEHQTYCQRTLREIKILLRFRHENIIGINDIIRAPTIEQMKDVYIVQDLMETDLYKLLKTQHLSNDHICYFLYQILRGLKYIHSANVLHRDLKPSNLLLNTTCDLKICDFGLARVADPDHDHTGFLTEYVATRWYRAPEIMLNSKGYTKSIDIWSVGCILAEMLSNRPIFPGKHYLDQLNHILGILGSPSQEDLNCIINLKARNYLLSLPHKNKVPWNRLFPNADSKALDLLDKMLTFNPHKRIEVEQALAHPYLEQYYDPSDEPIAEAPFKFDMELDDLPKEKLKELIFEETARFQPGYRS
Rho-associated protein kinase 2 (Homo sapiens), sequence (O75116 whole entry, looked up): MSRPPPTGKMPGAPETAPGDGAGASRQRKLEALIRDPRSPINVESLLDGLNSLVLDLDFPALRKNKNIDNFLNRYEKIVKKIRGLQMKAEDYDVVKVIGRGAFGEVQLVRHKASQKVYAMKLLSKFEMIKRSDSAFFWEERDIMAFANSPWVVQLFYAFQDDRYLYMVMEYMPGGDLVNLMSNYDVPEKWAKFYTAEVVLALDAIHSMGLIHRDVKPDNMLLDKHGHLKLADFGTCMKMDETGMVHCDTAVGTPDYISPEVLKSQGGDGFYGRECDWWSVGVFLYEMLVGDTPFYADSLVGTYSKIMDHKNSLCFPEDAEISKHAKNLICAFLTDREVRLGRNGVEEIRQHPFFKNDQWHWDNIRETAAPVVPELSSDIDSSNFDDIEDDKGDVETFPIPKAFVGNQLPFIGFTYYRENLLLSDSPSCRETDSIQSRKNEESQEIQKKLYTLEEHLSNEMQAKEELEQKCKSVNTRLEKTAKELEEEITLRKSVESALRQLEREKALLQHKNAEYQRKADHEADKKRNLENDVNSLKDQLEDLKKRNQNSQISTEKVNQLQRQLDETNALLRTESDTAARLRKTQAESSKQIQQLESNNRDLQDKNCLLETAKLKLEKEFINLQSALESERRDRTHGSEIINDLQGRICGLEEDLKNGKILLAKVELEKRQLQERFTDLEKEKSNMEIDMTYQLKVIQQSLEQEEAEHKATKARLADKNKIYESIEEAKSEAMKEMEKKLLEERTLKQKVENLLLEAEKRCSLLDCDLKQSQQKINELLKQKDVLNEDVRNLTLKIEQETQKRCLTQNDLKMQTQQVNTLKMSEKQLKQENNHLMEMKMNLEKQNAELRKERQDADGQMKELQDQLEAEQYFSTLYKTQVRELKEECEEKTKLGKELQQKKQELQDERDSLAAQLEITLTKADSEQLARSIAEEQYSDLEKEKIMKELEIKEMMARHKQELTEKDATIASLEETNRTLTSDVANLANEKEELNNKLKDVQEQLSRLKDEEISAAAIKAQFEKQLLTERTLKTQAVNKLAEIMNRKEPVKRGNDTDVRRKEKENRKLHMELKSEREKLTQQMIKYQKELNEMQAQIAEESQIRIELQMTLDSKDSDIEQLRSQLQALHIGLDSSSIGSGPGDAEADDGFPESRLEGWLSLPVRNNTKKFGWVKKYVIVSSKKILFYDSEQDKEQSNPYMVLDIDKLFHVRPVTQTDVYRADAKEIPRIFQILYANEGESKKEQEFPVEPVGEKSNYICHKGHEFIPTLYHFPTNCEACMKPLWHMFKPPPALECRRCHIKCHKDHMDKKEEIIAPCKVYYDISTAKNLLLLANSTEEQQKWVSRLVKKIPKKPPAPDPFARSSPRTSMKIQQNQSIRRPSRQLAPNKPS

inhibition [1]: 18%
inhibition [2]: -2%
inhibition [3]: 16%
inhibition [4]: 54%
inhibition [5]: 1%
inhibition [6]: 39%
inhibition [7]: 30%
inhibition [8]: 12%
inhibition [9]: 7%
inhibition [10]: -3%
inhibition [11]: 5%
inhibition [12]: 7%
inhibition [13]: 71%
inhibition [14]: 30%
inhibition [15]: 18%
inhibition [16]: 16%
inhibition [17]: 6%
inhibition [18]: 4%
inhibition [19]: 11%
Structure (SMILES): C[C@@H](Nc1c(C#N)cnc2cc(-c3ccc(-n4ccoc4=O)cc3)ccc12)C1CC1

inhibition [20]: 4%
Cp (Plasma [21]): 4.7 ng/mL
Kp [22]: 2.1
Cp (Plasma [23]): 31.8 ng/mL
Drug uptake (Brain): 4 ng/mL
Structure (SMILES): CC(C)Nc1c(C#N)cnc2cc(-c3cnn(C)c3)ccc12
